Measured values from patent US20230073777A1, “CYCLIC-AMP RESPONSE ELEMENT BINDING PROTEIN (CBP) AND/OR ADENOVIRAL E1A BINDING PROTEIN OF 300 KDA (P300) DEGRADATION COMPOUNDS AND METHODS OF USE” (CULLGEN (SHANGHAI), INC., priority 2019, published 2023).
Where two headings read alike, the source gives them in different places.

Tests used:
P300 = P300 (Homo sapiens, UniProt Q09472); assay: Immunoblotting of P300 protein levels in LNCaP or 22RV1 cells; assay type: cell-based; parameters: LNCaP or 22RV1 cells that express CBP/P300 proteins were treated with GNE-781 or the bivalent compounds; endogenous in cells; host or cells: LNCaP (clone FGC) or 22RV1 cells; settings: read-out: Degradation (10 nM)
Outline: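 P300/CBP levels quantified by chemiluminescent immunoblot band densitometry, normalized against tubulin or vinculin loading controls. Lysates came from LNCaP or 22RV1 cells exposed to compounds or DMSO vehicle for indicated times.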

LNCaP cells = assay: LNCaP cell viability assay (CellTiter-Glo); assay type: cell-based; settings: Homo sapiens, 72 h, LNCaP prostate cancer cell viability inhibition, 3 days
Outline: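 Three-day treatment of LNCaP cells (5000 per well) across a 12-point, 3-fold dilution series starting at 10 μM. ATP luminescence (CellTiter-Glo) relative to untreated controls gave dose-response curves fitted nonlinearly for IC50.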

[1] = percentage of inhibition of p300 at 10 nM (Table 2)
[2] = percentage of inhibition of p300 at 10 nM (Table 3)

Sequence of P300 (Q09472 whole entry): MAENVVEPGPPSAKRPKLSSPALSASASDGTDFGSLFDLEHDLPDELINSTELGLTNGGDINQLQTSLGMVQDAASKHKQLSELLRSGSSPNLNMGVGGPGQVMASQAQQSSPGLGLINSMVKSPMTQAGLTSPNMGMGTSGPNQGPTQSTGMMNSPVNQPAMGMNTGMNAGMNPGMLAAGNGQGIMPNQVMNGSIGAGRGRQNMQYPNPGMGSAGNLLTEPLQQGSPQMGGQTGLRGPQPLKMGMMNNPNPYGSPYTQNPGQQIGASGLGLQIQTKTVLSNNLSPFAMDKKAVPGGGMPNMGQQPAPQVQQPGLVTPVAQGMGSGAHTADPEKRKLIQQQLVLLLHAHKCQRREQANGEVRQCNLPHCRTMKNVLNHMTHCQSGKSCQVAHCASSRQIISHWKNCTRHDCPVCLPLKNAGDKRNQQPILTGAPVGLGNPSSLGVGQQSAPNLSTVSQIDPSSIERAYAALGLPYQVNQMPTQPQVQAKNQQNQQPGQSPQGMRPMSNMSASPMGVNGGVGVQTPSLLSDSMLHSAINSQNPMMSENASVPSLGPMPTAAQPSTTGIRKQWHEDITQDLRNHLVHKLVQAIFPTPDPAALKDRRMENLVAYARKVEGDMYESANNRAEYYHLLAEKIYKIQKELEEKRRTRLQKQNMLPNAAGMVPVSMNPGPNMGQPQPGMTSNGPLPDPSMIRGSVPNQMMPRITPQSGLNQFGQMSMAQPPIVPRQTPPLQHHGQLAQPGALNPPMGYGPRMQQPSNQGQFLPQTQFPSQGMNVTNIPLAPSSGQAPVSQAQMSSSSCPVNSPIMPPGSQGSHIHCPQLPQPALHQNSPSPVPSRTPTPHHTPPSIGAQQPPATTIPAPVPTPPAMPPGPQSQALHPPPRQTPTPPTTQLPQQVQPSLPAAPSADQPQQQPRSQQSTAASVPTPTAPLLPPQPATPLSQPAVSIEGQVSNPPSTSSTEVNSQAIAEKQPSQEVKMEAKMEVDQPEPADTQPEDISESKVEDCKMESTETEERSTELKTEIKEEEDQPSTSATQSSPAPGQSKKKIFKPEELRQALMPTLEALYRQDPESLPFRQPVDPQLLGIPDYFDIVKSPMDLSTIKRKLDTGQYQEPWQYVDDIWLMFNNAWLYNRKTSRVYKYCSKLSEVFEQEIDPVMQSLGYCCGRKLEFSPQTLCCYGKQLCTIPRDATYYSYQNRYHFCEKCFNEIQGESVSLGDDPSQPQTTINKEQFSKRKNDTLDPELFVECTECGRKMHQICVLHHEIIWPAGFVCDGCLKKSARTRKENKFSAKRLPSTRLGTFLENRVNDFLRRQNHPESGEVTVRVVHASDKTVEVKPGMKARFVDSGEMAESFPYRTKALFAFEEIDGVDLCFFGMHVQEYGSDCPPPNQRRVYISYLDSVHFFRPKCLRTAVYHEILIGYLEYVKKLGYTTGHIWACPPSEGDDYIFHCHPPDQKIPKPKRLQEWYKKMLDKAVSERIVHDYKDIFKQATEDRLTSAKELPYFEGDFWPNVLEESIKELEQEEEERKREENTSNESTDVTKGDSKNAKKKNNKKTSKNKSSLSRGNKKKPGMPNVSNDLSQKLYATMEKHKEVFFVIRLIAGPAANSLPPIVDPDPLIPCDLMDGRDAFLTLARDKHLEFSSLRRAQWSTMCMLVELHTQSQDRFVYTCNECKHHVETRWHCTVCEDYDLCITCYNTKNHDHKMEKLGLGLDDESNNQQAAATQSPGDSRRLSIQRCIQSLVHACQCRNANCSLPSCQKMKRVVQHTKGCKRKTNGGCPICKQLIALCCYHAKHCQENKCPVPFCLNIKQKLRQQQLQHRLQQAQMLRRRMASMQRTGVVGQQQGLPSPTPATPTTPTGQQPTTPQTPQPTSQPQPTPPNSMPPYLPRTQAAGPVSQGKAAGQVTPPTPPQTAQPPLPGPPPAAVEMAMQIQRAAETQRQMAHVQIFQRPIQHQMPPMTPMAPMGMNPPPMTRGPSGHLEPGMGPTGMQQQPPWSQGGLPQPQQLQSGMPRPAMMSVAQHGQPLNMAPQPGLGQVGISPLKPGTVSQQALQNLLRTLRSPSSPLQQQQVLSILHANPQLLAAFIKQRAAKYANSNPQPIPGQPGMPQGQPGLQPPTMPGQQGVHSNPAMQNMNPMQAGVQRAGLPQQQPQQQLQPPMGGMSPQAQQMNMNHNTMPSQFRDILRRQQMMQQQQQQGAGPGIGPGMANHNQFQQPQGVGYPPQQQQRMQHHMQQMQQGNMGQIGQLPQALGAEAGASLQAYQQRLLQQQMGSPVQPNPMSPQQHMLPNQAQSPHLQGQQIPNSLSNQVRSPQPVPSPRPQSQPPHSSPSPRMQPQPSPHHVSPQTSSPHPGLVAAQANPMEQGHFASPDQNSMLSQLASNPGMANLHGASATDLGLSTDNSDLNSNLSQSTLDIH

Row | inhibition at 0.01 µM (P300; [1]) [%] | IC50 (LNCaP cells; CellTiter-Glo (Table 2)) [nM] | inhibition at 0.01 µM (P300; [2]) [%] | IC50 (LNCaP cells; CellTiter-Glo (Table 3)) [nM] | Structure (SMILES)
1 | 20 to 50 | 10.6 | – | – | CNC(=O)N1CCc2c(c(N3CCCc4cc(-c5cnn(CC(=O)NCCCCCCNc6cccc7c6C(=O)N(C6CCC(=O)NC6=O)C7=O)c5)c(C(F)F)cc43)nn2C2CCOCC2)C1 (stereo not shown) [P-041, 3-(7-(difluoromethyl)-6-(1-(2-((6-((2-(2,6-dioxopiperidin-3-yl)-1,3-dioxoisoindolin-4-yl)amino)hexyl)amino)-2-oxoethyl)-1H-pyrazol-4-yl)-3,4-dihydroquinolin-1(2H)-yl)-N-methyl-1-(tetrahydro-2H-pyran-4-yl)-1,4,6,7-tetrahydro-5H-pyrazolo[4,3-c]pyridine-5-carboxamide]
2 | < 20 | 39 | – | – | CNC(=O)N1CCc2c(c(N3CCCc4cc(-c5cnn(CC(=O)NCCCCCCCNc6cccc7c6C(=O)N(C6CCC(=O)NC6=O)C7=O)c5)c(C(F)F)cc43)nn2C2CCOCC2)C1 (stereo not shown) [P-042]
3 | 20 to 50 | 15.4 | – | – | CNC(=O)N1CCc2c(c(N3CCCc4cc(-c5cnn(CC(=O)NCCCCCCCCNc6cccc7c6C(=O)N(C6CCC(=O)NC6=O)C7=O)c5)c(C(F)F)cc43)nn2C2CCOCC2)C1 (stereo not shown) [P-043, 3-(7-(difluoromethyl)-6-(1-(2-((8-((2-(2,6-dioxopiperidin-3-yl)-1,3-dioxoisoindolin-4-yl)amino)octyl)amino)-2-oxoethyl)-1H-pyrazol-4-yl)-3,4-dihydroquinolin-1(2H)-yl)-N-methyl-1-(tetrahydro-2H-pyran-4-yl)-1,4,6,7-tetrahydro-5H-pyrazolo[4,3-c]pyridine-5-carboxamide]
4 | < 20 | > 10000 | – | – | CNC(=O)N1CCc2c(c(N3CCCc4cc(-c5cnn(CC(=O)NCC(=O)N[C@H](C(=O)N6C[C@H](O)C[C@H]6C(=O)NCc6ccc(-c7scnc7C)cc6)C(C)(C)C)c5)c(C(F)F)cc43)nn2C2CCOCC2)C1 [P-044]
5 | < 20 | > 10000 | – | – | CNC(=O)N1CCc2c(c(N3CCCc4cc(-c5cnn(CC(=O)NCCC(=O)N[C@H](C(=O)N6C[C@H](O)C[C@H]6C(=O)NCc6ccc(-c7scnc7C)cc6)C(C)(C)C)c5)c(C(F)F)cc43)nn2C2CCOCC2)C1 [P-045, 3-(7-(Difluoromethyl)-6-(1-(2-((3-(((S)-1-((2S,4R)-4-hydroxy-2-((4-(4-methylthiazol-5-yl)benzyl)carbamoyl)pyrrolidin-1-yl)-3,3-dimethyl-1-oxobutan-2-yl)amino)-3-oxopropyl)amino)-2-oxoethyl)-1H-pyrazol-4-yl)-3,4-dihydroquinolin-1(2H)-yl)-N-methyl-1-(tetrahydro-2H-pyran-4-yl)-1,4,6,7-tetrahydro-5H-pyrazolo[4,3-c]pyridine-5-carboxamide]
6 | < 20 | 9040 | – | – | CNC(=O)N1CCc2c(c(N3CCCc4cc(-c5cnn(CC(=O)NCCCCC(=O)N[C@H](C(=O)N6C[C@H](O)C[C@H]6C(=O)NCc6ccc(-c7scnc7C)cc6)C(C)(C)C)c5)c(C(F)F)cc43)nn2C2CCOCC2)C1 [P-046, 3-(7-(Difluoromethyl)-6-(1-(2-((5-(((S)-1-((2S,4R)-4-hydroxy-2-((4-(4-methylthiazol-5-yl)benzyl)carbamoyl)pyrrolidin-1-yl)-3,3-dimethyl-1-oxobutan-2-yl)amino)-5-oxopentyl)amino)-2-oxoethyl)-1H-pyrazol-4-yl)-3,4-dihydroquinolin-1(2H)-yl)-N-methyl-1-(tetrahydro-2H-pyran-4-yl)-1,4,6,7-tetrahydro-5H-pyrazolo[4,3-c]pyridine-5-carboxamide]
7 | < 20 | 2560 | – | – | CNC(=O)N1CCc2c(c(N3CCCc4cc(-c5cnn(CC(=O)NCCCCCC(=O)N[C@H](C(=O)N6C[C@H](O)C[C@H]6C(=O)NCc6ccc(-c7scnc7C)cc6)C(C)(C)C)c5)c(C(F)F)cc43)nn2C2CCOCC2)C1 [P-047, 3-(7-(Difluoromethyl)-6-(1-(2-((6-(((S)-1-((2S,4R)-4-hydroxy-2-((4-(4-methylthiazol-5-yl)benzyl)carbamoyl)pyrrolidin-1-yl)-3,3-dimethyl-1-oxobutan-2-yl)amino)-6-oxohexyl)amino)-2-oxoethyl)-1H-pyrazol-4-yl)-3,4-dihydroquinolin-1(2H)-yl)-N-methyl-1-(tetrahydro-2H-pyran-4-yl)-1,4,6,7-tetrahydro-5H-pyrazolo[4,3-c]pyridine-5-carboxamide]
8 | < 20 | 471 | – | – | CNC(=O)N1CCc2c(c(N3CCCc4cc(-c5cnn(CC(=O)NCCCCCCCC(=O)N[C@H](C(=O)N6C[C@H](O)C[C@H]6C(=O)NCc6ccc(-c7scnc7C)cc6)C(C)(C)C)c5)c(C(F)F)cc43)nn2C2CCOCC2)C1 [P-048, 3-(7-(Difluoromethyl)-6-(1-(2-((8-(((S)-1-((2S,4R)-4-hydroxy-2-((4-(4-methylthiazol-5-yl)benzyl)carbamoyl)pyrrolidin-1-yl)-3,3-dimethyl-1-oxobutan-2-yl)amino)-8-oxooctyl)amino)-2-oxoethyl)-1H-pyrazol-4-yl)-3,4-dihydroquinolin-1(2H)-yl)-N-methyl-1-(tetrahydro-2H-pyran-4-yl)-1,4,6,7-tetrahydro-5H-pyrazolo[4,3-c]pyridine-5-carboxamide]
9 | 20 to 50 | 111 | – | – | CNC(=O)N1CCc2c(c(N3CCCc4cc(-c5cnn(CC(=O)NCCCCCCCCCCC(=O)N[C@H](C(=O)N6C[C@H](O)C[C@H]6C(=O)NCc6ccc(-c7scnc7C)cc6)C(C)(C)C)c5)c(C(F)F)cc43)nn2C2CCOCC2)C1 [P-050, 3-(7-(Difluoromethyl)-6-(1-(2-((11-(((S)-1-((2S,4R)-4-hydroxy-2-((4-(4-methylthiazol-5-yl)benzyl)carbamoyl)pyrrolidin-1-yl)-3,3-dimethyl-1-oxobutan-2-yl)amino)-11-oxoundecyl)amino)-2-oxoethyl)-1H-pyrazol-4-yl)-3,4-dihydroquinolin-1(2H)-yl)-N-methyl-1-(tetrahydro-2H-pyran-4-yl)-1,4,6,7-tetrahydro-5H-pyrazolo[4,3-c]pyridine-5-carboxamide]
10 | – | – | < 20 | 27.5 | CNC(=O)N1CCc2c(c(N3CCCc4cc(-c5cnn(C)c5)c(C(F)F)cc43)nn2C2CCN(C(=O)CCOCCNc3cccc4c3C(=O)N(C3CCC(=O)NC3=O)C4=O)CC2)C1 (stereo not shown) [P-051, 3-(7-(Difluoromethyl)-6-(1-methyl-1H-pyrazol-4-yl)-3,4-dihydroquinolin-1(2H)-yl)-1-(1-(3-(2-((2-(2,6-dioxopiperidin-3-yl)-1,3-dioxoisoindolin-4-yl)amino)ethoxy)propanoyl)piperidin-4-yl)-N-methyl-1,4,6,7-tetrahydro-5H-pyrazolo[4,3-c]pyridine-5-carboxamide]
11 | – | – | < 20 | 105 | CNC(=O)N1CCc2c(c(N3CCCc4cc(-c5cnn(C)c5)c(C(F)F)cc43)nn2C2CCN(C(=O)CCOCCOCCNc3cccc4c3C(=O)N(C3CCC(=O)NC3=O)C4=O)CC2)C1 (stereo not shown) [P-052, 3-(7-(Difluoromethyl)-6-(1-methyl-1H-pyrazol-4-yl)-3,4-dihydroquinolin-1(2H)-yl)-1-(1-(3-(2-(2-((2-(2,6-dioxopiperidin-3-yl)-1,3-dioxoisoindolin-4-yl)amino)ethoxy)ethoxy)propanoyl)piperidin-4-yl)-N-methyl-1,4,6,7-tetrahydro-5H-pyrazolo[4,3-c]pyridine-5-carboxamide]
12 | – | – | 20 to 50 | 76.5 | CNC(=O)N1CCc2c(c(N3CCCc4cc(-c5cnn(C)c5)c(C(F)F)cc43)nn2C2CCN(C(=O)CCOCCOCCOCCNc3cccc4c3C(=O)N(C3CCC(=O)NC3=O)C4=O)CC2)C1 (stereo not shown) [P-053, 3-(7-(Difluoromethyl)-6-(1-methyl-1H-pyrazol-4-yl)-3,4-dihydroquinolin-1(2H)-yl)-1-(1-(3-(2-(2-(2-((2-(2,6-dioxopiperidin-3-yl)-1,3-dioxoisoindolin-4-yl)amino)ethoxy)ethoxy)ethoxy)propanoyl)piperidin-4-yl)-N-methyl-1,4,6,7-tetrahydro-5H-pyrazolo[4,3-c]pyridine-5-carboxamide]
13 | – | – | < 20 | 122 | CNC(=O)N1CCc2c(c(N3CCCc4cc(-c5cnn(C)c5)c(C(F)F)cc43)nn2C2CCN(C(=O)CCOCCOCCOCCOCCNc3cccc4c3C(=O)N(C3CCC(=O)NC3=O)C4=O)CC2)C1 (stereo not shown) [P-054, 3-(7-(Difluoromethyl)-6-(1-methyl-1H-pyrazol-4-yl)-3,4-dihydroquinolin-1(2H)-yl)-1-(1-(1-((2-(2,6-dioxopiperidin-3-yl)-1,3-dioxoisoindolin-4-yl)amino)-3,6,9,12-tetraoxapentadecan-15-oyl)piperidin-4-yl)-N-methyl-1,4,6,7-tetrahydro-5H-pyrazolo[4,3-c]pyridine-5-carboxamide]
14 | – | – | < 20 | 161 | CNC(=O)N1CCc2c(c(N3CCCc4cc(-c5cnn(C)c5)c(C(F)F)cc43)nn2C2CCN(C(=O)CCOCCOCCOCCOCCOCCNc3cccc4c3C(=O)N(C3CCC(=O)NC3=O)C4=O)CC2)C1 (stereo not shown) [P-055, 3-(7-(Difluoromethyl)-6-(1-methyl-1H-pyrazol-4-yl)-3,4-dihydroquinolin-1(2H)-yl)-1-(1-(1-((2-(2,6-dioxopiperidin-3-yl)-1,3-dioxoisoindolin-4-yl)amino)-3,6,9,12,15-pentaoxaoctadecan-18-oyl)piperidin-4-yl)-N-methyl-1,4,6,7-tetrahydro-5H-pyrazolo[4,3-c]pyridine-5-carboxamide]
